The values that follow come from ChEMBL document CHEMBL4422615, “Novel non-xanthine antagonist of the A2B adenosine receptor: From HTS hit to lead structure” (Eur J Med Chem, 2019).

What is called IC50 is the concentration that inhibits the measured activity by half. The low end stands for higher potency, the high end for lower potency.

A short description of data set [1]: Intrinsic clearance in rat hepatocytes by MS/MS analysis. It is filed as ADME, cell-based, Hepatocyte. As to conditions: read-out: CLH (converted).
Data set [2] is filed under the species Homo sapiens. As to the kind of experiment: Selectivity index, ratio of IC50 for human A3 adenosine receptor expressed in HEK293 cell membranes to IC50 for human A2B adenosine receptor expressed in HEK293 cell membranes. Type of data set: cell-based.
Data set [3] is filed under the species Homo sapiens. As to the kind of experiment: Selectivity index, ratio of IC50 for human A2A adenosine receptor expressed in HEK293 cell membranes to IC50 for human A2B adenosine receptor expressed in HEK293 cell membranes. It is filed as cell-based.
The species named for data set [4] is Homo sapiens. As to the kind of experiment: Selectivity index, ratio of IC50 for human A1 adenosine receptor expressed in CHO cell membranes to IC50 for human A2B adenosine receptor expressed in HEK293 cell membranes. Type of data set: cell-based.
Data set [5] concerns the target T1, Adenosine receptor A2b (Homo sapiens, UniProt P29275).
T1 sequence (P29275 whole entry): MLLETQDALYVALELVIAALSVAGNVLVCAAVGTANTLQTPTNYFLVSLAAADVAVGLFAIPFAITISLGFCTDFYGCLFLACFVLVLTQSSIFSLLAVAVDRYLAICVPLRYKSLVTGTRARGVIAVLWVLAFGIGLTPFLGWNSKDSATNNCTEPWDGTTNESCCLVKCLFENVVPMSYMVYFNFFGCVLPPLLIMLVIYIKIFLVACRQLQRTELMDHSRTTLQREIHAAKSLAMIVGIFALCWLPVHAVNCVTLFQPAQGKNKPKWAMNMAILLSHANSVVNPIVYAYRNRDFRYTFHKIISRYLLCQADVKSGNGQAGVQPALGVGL
Put plainly: Displacement of [3H]DPCPX from human A2B adenosine receptor expressed in HEK293 cell membranes after 60 mins by radioligand displacement assay. (Loss of bound radioactivity is the signal in a displacement assay; it reports binding, not function.)

Where only a bound is given, the exact number is not on record here.

In the case of `COCCn1c(=O)[nH]c(=O)c2c(C)csc21`, the predicted hepatic clearance in data set [1] is 31.7 mL/min/kg. The results for the Ratio IC50 in data set [2], in data set [3] and in data set [4] were 0.61 to 1, 1 and 1, respectively. Further, the IC50 in data set [5] is > 10 µM.

For `COCCn1c(=O)n(CCc2ccccc2)c(=O)c2c(C)c(Cn3ccnc3)sc21`, the predicted hepatic clearance in data set [1] is 58.3 mL/min/kg. In addition, the Ratio IC50 amounted to 530 in data set [2], 120 in data set [3] and 33 in data set [4]. The molecule further showed an IC50 in data set [5] of 0.012 µM.

With `Cc1[nH]cnc1Cn1c(=O)n(CCc2ccccc2)c(=O)c2c(C)csc21`, the predicted hepatic clearance in data set [1] was 56.7 mL/min/kg. For the same molecule, the Ratio IC50 in data set [2] was 2; in data set [3] it was 3; in data set [4], 3. This molecule registered an IC50 in data set [5] of 3.4 µM.

Take `COCCn1c(=O)n(CCc2ccccc2)c(=O)c2c(C)c(Cc3nc[nH]c3C)sc21`: the predicted hepatic clearance in data set [1] is 66.7 mL/min/kg. Besides, the Ratio IC50 was 2800 in data set [2], 180 in data set [3] and 93 in data set [4]. Also, the IC50 in data set [5] worked out at 0.0024 µM.

Regarding `CCN(CCO)C(=O)c1sc2c(c1C)c(=O)n(CC)c(=O)n2CCC(F)(F)F`, the predicted hepatic clearance in data set [1] is 40 mL/min/kg. The Ratio IC50 worked out at 130 in data set [2], 21 in data set [3] and 13 in data set [4]. In data set [5], this molecule registered a half-maximal inhibitory concentration (IC50) of 0.05 µM.

As for `COCCn1c(=O)n(CCc2ccccc2)c(=O)c2c(C)c(Cc3c[nH]c(C)n3)sc21`, the predicted hepatic clearance in data set [1] was 61.7 mL/min/kg. Also, the results for the Ratio IC50 in data set [2], in data set [3] and in data set [4] were 750, 510 and 110, respectively. This molecule registered an IC50 in data set [5] of 0.0088 µM.

`COCCn1c(=O)n(CCc2ccccc2)c(=O)c2c(C)c(C(N)=O)sc21`: the predicted hepatic clearance in data set [1] was 65 mL/min/kg. In addition, the Ratio IC50 in data set [2] was found to be 16; in data set [3], 18; in data set [4] it was 8. The molecule also had a 50% inhibitory concentration (IC50) in data set [5] of 0.43 µM.

Consider `CCn1c(=O)c2c(C)c(C(=O)N3CC(O)C3)sc2n(CCC(F)(F)F)c1=O`, for which, in data set [1], the predicted hepatic clearance is 6.83 to 10 mL/min/kg. The Ratio IC50 in data set [2] is 32; in data set [3], 7; in data set [4] it was 8. This molecule also came in with an IC50 in data set [5] of 0.2 µM.

Turning to `CCN(CC(C)(C)O)C(=O)c1sc2c(c1C)c(=O)n(CC)c(=O)n2CCC(F)(F)F`, the predicted hepatic clearance in data set [1] was 35 mL/min/kg. Also, the Ratio IC50 was 170 in data set [2], 19 in data set [3] and 11 in data set [4]. The molecule also came in with a 50% inhibitory concentration (IC50) in data set [5] of 0.039 µM.

As for `Cc1csc2c1c(=O)n(CCc1ccccc1)c(=O)n2CCC(F)(F)F`, the predicted hepatic clearance in data set [1] was 66.7 mL/min/kg. For the same molecule, the Ratio IC50 in data set [2] is 120; in data set [3], 81; in data set [4], 25. Further, the IC50 in data set [5] was found to be 0.056 µM.

With `CCN(CC)C(=O)c1sc2c(c1C)c(=O)n(CCOC)c(=O)n2CCC(F)(F)F`, the predicted hepatic clearance in data set [1] is 60 mL/min/kg. Besides, the Ratio IC50 in data set [2] is 68; in data set [3], 0.83; in data set [4] it was 22. This molecule came in with an IC50 in data set [5] of 0.097 µM.

Turning to `COCCn1c(=O)n(CCc2ccccc2)c(=O)c2c(C)c(C(O)C3CC3)sc21` (stereo not given), the predicted hepatic clearance in data set [1] is 68.3 mL/min/kg. The Ratio IC50 in data set [2] was found to be 480; in data set [3], 11; in data set [4], 10. For the same molecule, in data set [5], the half-maximal inhibitory concentration (IC50) came out at 0.014 µM.

In the case of `COCCn1c(=O)n(CCc2ccccc2)c(=O)c2c(C)c(C(O)c3ccccc3)sc21` (stereo not given), the predicted hepatic clearance in data set [1] was 68.3 mL/min/kg. The figures for the Ratio IC50 in data set [2], in data set [3] and in data set [4] were 230, 21 and 1, respectively. Further, the IC50 in data set [5] came out at 0.03 µM.

In the case of `Cc1csc2c1c(=O)n(CCc1ccccc1)c(=O)n2Cc1cnc[nH]1`, in data set [1], the predicted hepatic clearance is 46.7 mL/min/kg. Further, the Ratio IC50 in data set [2] turned out to be 5; in data set [3], 8; in data set [4], 3. For the same molecule, in data set [5], the IC50 was 1.3 µM.

As for `Cc1csc2c1c(=O)n(CCc1cccnc1)c(=O)n2CCC(F)(F)F`, in data set [1], the predicted hepatic clearance was 66.7 mL/min/kg. For the same molecule, the figures for the Ratio IC50 in data set [2], in data set [3] and in data set [4] were 120, 21 and 40, respectively. This molecule also gave an IC50 in data set [5] of 0.055 µM.

On to `CCN(CC)C(=O)c1sc2c(c1C)c(=O)n(CCc1ccccc1)c(=O)n2CCOC`, for which, in data set [1], the predicted hepatic clearance is 66.7 mL/min/kg. The Ratio IC50 worked out at 160 in data set [2], 3 in data set [3] and 23 in data set [4]. The molecule further registered a half-inhibitory concentration (IC50) in data set [5] of 0.042 µM.

On to `COCCn1c(=O)n(CCc2cccnc2)c(=O)c2c(C)csc21`, for which, in data set [1], the predicted hepatic clearance is 61.7 mL/min/kg. In addition, the figures for the Ratio IC50 in data set [2], in data set [3] and in data set [4] were 23, 29 and 39, respectively. The IC50 in data set [5] is 0.28 µM.

With `CCN(CC)C(=O)c1sc2c(c1N)c(=O)n(C)c(=O)n2C`, the predicted hepatic clearance in data set [1] is 53.3 mL/min/kg. The figures for the Ratio IC50 in data set [2], in data set [3] and in data set [4] were 0.61, 0.73 and 0.62, respectively. The IC50 in data set [5] is > 10 µM.

On to `COCCn1c(=O)n(CCc2ccccc2)c(=O)c2c(C)c(C(C)(O)C3CC3)sc21` (stereo not given), for which the predicted hepatic clearance in data set [1] was 66.7 mL/min/kg. Moreover, the Ratio IC50 was found to be 45 in data set [2], 6 in data set [3] and 2 in data set [4]. In data set [5], this molecule returned an IC50 of 0.15 µM.
